Publication PMC11882969 (Nature Communications, 2025)
Several values for one entry are separate records, joined by “and”; a condition that tells them apart may be missing. Identical values can stand only once. Marks after values point to notes of the source that are not given here.

What was measured:
[1] = molecular target: T1, hCB1 (Homo sapiens, UniProt P21554); assay: Lance Ultra cAMP accumulation assay, CHO cells; format: cell-based; design: expressed in transfected cells;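 also: human CB1R stably expressed in CHO cells, ligands co-incubated with forskolin at room temperature, read-out is lowering of forskolin-stimulated cAMP accumulation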
T1 sequence (P21554 whole entry): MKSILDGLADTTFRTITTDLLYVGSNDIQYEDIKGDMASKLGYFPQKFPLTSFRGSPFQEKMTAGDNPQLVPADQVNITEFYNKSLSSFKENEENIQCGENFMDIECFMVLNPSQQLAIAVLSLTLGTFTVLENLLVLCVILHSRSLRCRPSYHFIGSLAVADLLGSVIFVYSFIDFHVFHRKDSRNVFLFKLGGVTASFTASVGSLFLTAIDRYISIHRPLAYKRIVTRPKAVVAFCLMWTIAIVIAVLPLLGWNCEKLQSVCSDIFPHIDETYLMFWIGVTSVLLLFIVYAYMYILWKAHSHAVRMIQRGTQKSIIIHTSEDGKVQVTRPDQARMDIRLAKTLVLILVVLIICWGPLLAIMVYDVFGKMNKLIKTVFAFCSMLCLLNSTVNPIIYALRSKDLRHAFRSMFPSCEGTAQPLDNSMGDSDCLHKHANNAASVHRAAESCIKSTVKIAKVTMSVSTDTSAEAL
Procedure: The inhibition of forskolin-stimulated cAMP accumulation assays was carried out using PerkinElmer’s Lance Ultra cAMP kit following the manufacturer’s protocol. In brief, CHO cells stably expressing human CB1R (provided by the lab of Laura Bohn) were harvested by incubation with Versene (ThermoFisher Scientific, Waltham, MA) for 10 min, washed once with Hank’s Balanced Salt Solution, and resuspended in stimulation buffer at ~200 cells/μL density. The ligands at eight different concentrations (0.001-10,000 nM) in stimulation buffer (5 μL) containing forskolin (2 μM final concentration) were added to a 384-well plate followed by the cell suspension (5 μL; ~1000 cells/well). The plate was incubated for 30 min at room temperature. Eu-cAMP tracer (5 μL) and Ulight-anti-cAMP (5 μL) working solutions were then added to each well, and the plate was incubated at room temperature for an additional 60 min. Results were measured on a Perkin-Elmer EnVision plate reader. The EC50 values were determined by nonlinear regression analysis using Graphpad Prism 9 and are expressed as the mean of three experiments, each performed in triplicate.

[2] = molecular target: T1, hCB1; assay: bioSensAll ebBRET signaling profiling, hCB1; format: cell-based; design: host or cells: HEK293SL cells, transient PEI transfection

In the case of `COC(=O)C(C)(NC(=O)c1cc(C)n(-c2cccc(C(F)(F)F)c2)n1)c1cccs1` (stereo not drawn) [‘4042], the EC50 [1] is reported as 3.3 nM, the “Lance Ultra cAMP pEC50” value [1] is reported as 8.5 [8.3 – 8.7] and the Emax ([1]; CHO) is reported as 78%. The “Barr2+GRK2 hCB1” value ([2]; Log [Compound] (M) -4.22186) was 92.62* and 120.7*, the “G13 hCB1” value ([2]; Log [Compound] (M) -4.22186) was 70.6599 and the “G15 hCB1” value ([2]; Log [Compound] (M) -4.22186) was 109.73 and 102.131. For the same compound, the “Gi1 hCB1” value ([2]; Log [Compound] (M) -4.22186) was 104.966 and 104.552 and 101.354, the “Gi2 hCB1” value ([2]; Log [Compound] (M) -4.22186) was 114.417 and 105.522 and the “GoB hCB1” value ([2]; Log [Compound] (M) -4.22186) was 107.662 and 102.746 and 100.082. For the same compound, the “Gq hCB1” value ([2]; Log [Compound] (M) -4.22186) was 1205, the “Gs hCB1” value ([2]; Log [Compound] (M) -4.22186) was 6574 and the “Barr2+GRK2 hCB1” value ([2]; Log [Compound] (M) -4.63927) was 82.3587 and 72.7006. For the same compound, the “G13 hCB1” value ([2]; Log [Compound] (M) -4.63927) was 46.7858 and 87.1754, the “G15 hCB1” value ([2]; Log [Compound] (M) -4.63927) was 108.775 and 92.8459 and the “Gi1 hCB1” value ([2]; Log [Compound] (M) -4.63927) was 101.502 and 110.826 and 98.3137. For the same compound, the “Gi2 hCB1” value ([2]; Log [Compound] (M) -4.63927) was 122.075 and 85.154, the “GoB hCB1” value ([2]; Log [Compound] (M) -4.63927) was 110.056 and 106.901 and 98.7991 and the “Gq hCB1” value ([2]; Log [Compound] (M) -4.63927) was 1175. The “Gs hCB1” value ([2]; Log [Compound] (M) -4.63927) was 6296, the “Gz hCB1” value ([2]; Log [Compound] (M) -4.63927) was 112.813 and 91.1447 and the “Barr2+GRK2 hCB1” value ([2]; Log [Compound] (M) -5.05788) was 70.2312 and 47.6394. The “G15 hCB1” value ([2]; Log [Compound] (M) -5.05788) was 113.05 and 88.4535, the “Gi1 hCB1” value ([2]; Log [Compound] (M) -5.05788) was 105.528 and 109.408 and 94.1617 and the “Gi2 hCB1” value ([2]; Log [Compound] (M) -5.05788) was 116.649 and 83.6719. The “GoB hCB1” value ([2]; Log [Compound] (M) -5.05788) was 115.498 and 117.852 and 92.0047, the “Gq hCB1” value ([2]; Log [Compound] (M) -5.05788) was 1109 and the “Gs hCB1” value ([2]; Log [Compound] (M) -5.05788) was 6591. For the same compound, the “Gz hCB1” value ([2]; Log [Compound] (M) -5.05788) was 89.4695 and 99.3467, the “G13 hCB1” value ([2]; Log [Compound] (M) -5.47381) was 42.3393 and 80.0269 and the “G15 hCB1” value ([2]; Log [Compound] (M) -5.47381) was 106.626 and 91.4256. The “Gi1 hCB1” value ([2]; Log [Compound] (M) -5.47381) was 102.594 and 101.052 and 96.5342, the “Gi2 hCB1” value ([2]; Log [Compound] (M) -5.47381) was 113.717 and 80.6941 and the “GoB hCB1” value ([2]; Log [Compound] (M) -5.47381) was 111.936 and 119.903 and 88.1947. For the same compound, the “Gq hCB1” value ([2]; Log [Compound] (M) -5.47381) was 1096, the “Gs hCB1” value ([2]; Log [Compound] (M) -5.47381) was 6432 and the “Gz hCB1” value ([2]; Log [Compound] (M) -5.47381) was 99.3173 and 98.4249. The “Barr2+GRK2 hCB1” value ([2]; Log [Compound] (M) -5.89285) was 78.4199 and 57.3671, the “G15 hCB1” value ([2]; Log [Compound] (M) -5.89285) was 110.351 and 94.8449 and the “Gi1 hCB1” value ([2]; Log [Compound] (M) -5.89285) was 96.0236 and 103.056 and 95.3776. For the same compound, the “Gi2 hCB1” value ([2]; Log [Compound] (M) -5.89285) was 120.967 and 77.6348, the “GoB hCB1” value ([2]; Log [Compound] (M) -5.89285) was 107.616 and 111.235 and 93.9859 and the “Gq hCB1” value ([2]; Log [Compound] (M) -5.89285) was 1179. For the same compound, the “Gs hCB1” value ([2]; Log [Compound] (M) -5.89285) was 6305, the “Gz hCB1” value ([2]; Log [Compound] (M) -5.89285) was 104.129 and 105.45 and 96.7384 and the “Barr2+GRK2 hCB1” value ([2]; Log [Compound] (M) -6.31878) was 80.7003 and 54.8939. The “G15 hCB1” value ([2]; Log [Compound] (M) -6.31878) was 115.7 and 96.7912, the “Gi1 hCB1” value ([2]; Log [Compound] (M) -6.31878) was 96.367 and 108.992 and 101.754 and the “Gi2 hCB1” value ([2]; Log [Compound] (M) -6.31878) was 121.929 and 79.8783. The “GoB hCB1” value ([2]; Log [Compound] (M) -6.31878) was 95.5518 and 109.274 and 88.1947, the “Gq hCB1” value ([2]; Log [Compound] (M) -6.31878) was 1143 and the “Gs hCB1” value ([2]; Log [Compound] (M) -6.31878) was 6312. For the same compound, the “Gz hCB1” value ([2]; Log [Compound] (M) -6.31878) was 91.7649 and 96.1616 and 90.8724, the “Barr2+GRK2 hCB1” value ([2]; Log [Compound] (M) -6.72585) was 68.6764 and 46.9799 and the “G15 hCB1” value ([2]; Log [Compound] (M) -6.72585) was 112.142 and 94.2925. For the same compound, the “Gi1 hCB1” value ([2]; Log [Compound] (M) -6.72585) was 106.09 and 92.9585 and 96.5936, the “Gi2 hCB1” value ([2]; Log [Compound] (M) -6.72585) was 109.48 and 81.9179 and the “GoB hCB1” value ([2]; Log [Compound] (M) -6.72585) was 86.2761 and 114.112 and 87.3057. The “Gq hCB1” value ([2]; Log [Compound] (M) -6.72585) was 1077, the “Gs hCB1” value ([2]; Log [Compound] (M) -6.72585) was 6405 and the “Gz hCB1” value ([2]; Log [Compound] (M) -6.72585) was 96.9343 and 94.4158 and 89.6782. For the same compound, the “Barr2+GRK2 hCB1” value ([2]; Log [Compound] (M) -7.14267) was 59.7621 and 50.2774, the “G15 hCB1” value ([2]; Log [Compound] (M) -7.14267) was 114.268 and 99.1321 and the “Gi1 hCB1” value ([2]; Log [Compound] (M) -7.14267) was 107.604 and 101.422 and 97.765. For the same compound, the “Gi2 hCB1” value ([2]; Log [Compound] (M) -7.14267) was 109.219 and 83.8759, the “GoB hCB1” value ([2]; Log [Compound] (M) -7.14267) was 86.7157 and 119.974 and 89.2869 and the “Gq hCB1” value ([2]; Log [Compound] (M) -7.14267) was 1043. The “Gs hCB1” value ([2]; Log [Compound] (M) -7.14267) was 7002, the “Gz hCB1” value ([2]; Log [Compound] (M) -7.14267) was 98.2797 and 100.101 and 88.7145 and the “Barr2+GRK2 hCB1” value ([2]; Log [Compound] (M) -7.55284) was 52.5063 and 42.0336. For the same compound, the “G15 hCB1” value ([2]; Log [Compound] (M) -7.55284) was 113.933 and 98.6587, the “Gi1 hCB1” value ([2]; Log [Compound] (M) -7.55284) was 97.1473 and 109.377 and 98.1802 and the “Gi2 hCB1” value ([2]; Log [Compound] (M) -7.55284) was 110.556 and 82.2578. The “GoB hCB1” value ([2]; Log [Compound] (M) -7.55284) was 88.4435 and 120.01 and 87.3057, the “Gq hCB1” value ([2]; Log [Compound] (M) -7.55284) was 1071 and the “Gs hCB1” value ([2]; Log [Compound] (M) -7.55284) was 6586. The “Gz hCB1” value ([2]; Log [Compound] (M) -7.55284) was 92.0765 and 86.4032 and 85.0169, the “Barr2+GRK2 hCB1” value ([2]; Log [Compound] (M) -8) was 45.4579 and 41.3741 and the “G15 hCB1” value ([2]; Log [Compound] (M) -8) was 112.381 and 101.184. The “Gi1 hCB1” value ([2]; Log [Compound] (M) -8) was 95.7115 and 104.367 and 92.5898, the “Gi2 hCB1” value ([2]; Log [Compound] (M) -8) was 103.223 and 88.1181 and the “GoB hCB1” value ([2]; Log [Compound] (M) -8) was 98.6892 and 112.511 and 89.2869. For the same compound, the “Gq hCB1” value ([2]; Log [Compound] (M) -8) was 1060, the “Gs hCB1” value ([2]; Log [Compound] (M) -8) was 6741 and the “Gz hCB1” value ([2]; Log [Compound] (M) -8) was 97.3733 and 99.8321 and 82.6809. The “Barr2+GRK2 hCB1” value ([2]; Log [Compound] (M) -8.22186) was 47.6346 and 43.8472, the “G13 hCB1” value ([2]; Log [Compound] (M) -8.22186) was 44.4318 and 47.6121 and the “G15 hCB1” value ([2]; Log [Compound] (M) -8.22186) was 112.142 and 106.076. The “Gi1 hCB1” value ([2]; Log [Compound] (M) -8.22186) was 104.327 and 106.186 and 100.167, the “Gi2 hCB1” value ([2]; Log [Compound] (M) -8.22186) was 112.022 and 97.4049 and the “GoB hCB1” value ([2]; Log [Compound] (M) -8.22186) was 115.24 and 97.3514 and 98.8499. For the same compound, the “Gq hCB1” value ([2]; Log [Compound] (M) -8.22186) was 1073, the “Gs hCB1” value ([2]; Log [Compound] (M) -8.22186) was 6493 and the “Gz hCB1” value ([2]; Log [Compound] (M) -8.22186) was 122.54 and 109.635 and 78.9413. The “Barr2+GRK2 hCB1” value ([2]; Log [Compound] (M) -8.39794) was 32.0865 and 32.6356, the “G15 hCB1” value ([2]; Log [Compound] (M) -8.39794) was 101.826 and 96.5808 and the “Gi1 hCB1” value ([2]; Log [Compound] (M) -8.39794) was 93.4953 and 99.8959 and 97.0977. For the same compound, the “Gi2 hCB1” value ([2]; Log [Compound] (M) -8.39794) was 102.295 and 80.9389, the “GoB hCB1” value ([2]; Log [Compound] (M) -8.39794) was 81.1381 and 111.288 and 86.2389 and the “Gq hCB1” value ([2]; Log [Compound] (M) -8.39794) was 1055.
